Measured values from the supplement of paper PMC10307832.

Tests used:
Test in all cases: relative viability (nuclei count vs DMSO), 5 days (fraction); higher = more cells survive
[1] = compound: Cc1ccc(NC(=O)c2ccc(CN3CCN(C)CC3)cc2)cc1Nc1nccc(-c2cccnc2)n1 [Imatinib] + CC(=O)Nc1cccc(-n2c(=O)n(C3CC3)c(=O)c3c(Nc4ccc(I)cc4F)n(C)c(=O)c(C)c32)c1 [Trametinib] (partner 0.02 µM)
Outline: (§1)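 After 5 days of treatment, lung cancer cells in 1536-well plates were fixed and stained in a single step (final 0.05% Triton X-100, 1% formaldehyde, 1 ug/ml Hoechst) and their nuclei counted on 4× images. Treatment had been applied by pin tool the day after seeding as one drug alone or as a fixed anchor-drug dose with five library-drug doses (not always all listed) in √10 steps. Relative viability is the nuclei count of treated wells divided by that of vehicle wells, and values are medians of duplicate plates.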

[2] = compound: Cc1ccc(NC(=O)c2ccc(CN3CCN(C)CC3)cc2)cc1Nc1nccc(-c2cccnc2)n1 [Imatinib] + Cc1cc(Nc2cc(N3CCN(C)CC3)nc(Sc3ccc(NC(=O)C4CC4)cc3)n2)n[nH]1 [Tozasertib] (partner 0.1 µM)
Outline: as §1

[3] = compound: Cc1ccc(NC(=O)c2ccc(CN3CCN(C)CC3)cc2)cc1Nc1nccc(-c2cccnc2)n1 [Imatinib] + N=C(N)NC(=N)NCCc1ccccc1 [Phenformin] (partner 250 µM)
Outline: as §1

[4] = compound: Cc1ccc(NC(=O)c2ccc(CN3CCN(C)CC3)cc2)cc1Nc1nccc(-c2cccnc2)n1 [Imatinib] + NC(=O)Nc1cc(-c2cccc(F)c2)sc1C(=O)N[C@H]1CCCNC1 [AZD7762] (partner 0.2 µM)
Outline: as §1

Cell Line	relative viability ([1]; first compound 0.02 µM)	relative viability ([1]; first compound 0.06325 µM)	relative viability ([1]; first compound 0.2 µM)	relative viability ([1]; first compound 0.6325 µM)	relative viability ([1]; first compound 2 µM)	relative viability ([2]; first compound 0.02 µM)	relative viability ([2]; first compound 0.06325 µM)	relative viability ([2]; first compound 0.2 µM)	relative viability ([2]; first compound 0.6325 µM)	relative viability ([2]; first compound 2 µM)	relative viability ([3]; first compound 0.02 µM)	relative viability ([3]; first compound 0.06325 µM)	relative viability ([3]; first compound 0.2 µM)	relative viability ([3]; first compound 0.6325 µM)	relative viability ([3]; first compound 2 µM)	relative viability ([4]; first compound 0.02 µM)	relative viability ([4]; first compound 0.2 µM)	relative viability ([4]; first compound 0.6325 µM)	relative viability ([4]; first compound 2 µM)	relative viability ([4]; first compound 0.06325 µM)
NCI-H358	0.14	0.143	0.129	0.139	0.121	0.103	0.121	0.102	0.0961	0.0939	0.317	0.349	0.418	0.292	0.335	0.559	0.489	0.574	0.521	
HCC-78	0.837	0.613	0.9	0.755	0.881	0.393	0.455	0.427	0.409	0.427	0.695	0.674	0.719	0.591	0.641	0.592		0.636	0.58	0.714
NCI-H520	0.775	0.531	0.669	0.674	0.8	0.474	0.509	0.366	0.424		0.695	0.823	0.545	0.568	0.497					
NCI-H1792	0.534	0.311	0.521		0.427						0.262	0.237	0.233	0.235	0.35	0.727	0.513		0.34	0.7
NCI-H661	0.62	0.419	0.649	0.586	0.593	0.383	0.393	0.365	0.344	0.347	0.245	0.255	0.259	0.263	0.258					
NCI-H2009	0.319	0.214	0.255	0.296	0.246	0.832		0.765	0.71	0.711	0.518		0.485	0.445	0.383					
NCI-H2023	0.729	0.6	0.564		0.618	0.461	0.319	0.254	0.259	0.18	0.503	0.391	0.356	0.341	0.342					
SK-MES-1	0.642	0.663	0.589	0.587	0.588	0.994	1.02	1.13	0.906	0.821	0.72	0.686	0.725	0.619	0.577					
COR-L23	0.636	0.494	0.72	0.697	0.648	0.226	0.174	0.165	0.161	0.154	0.469	0.541	0.496	0.419	0.422					
